In brackets after ≈: the same amount, converted by molar mass.
What was measured:
Type in all cases: cell-based
E. coli UBMS 88-1 Tet B = test: microbe, parasite or virus in culture; conditions: E. coli UBMS 88-1 Tet B; 18 hours at 35° C.
[1] = test system: E. coli MC 4100 Tet sens.; test: MIC, agar dilution
E. coli PRP1 Tet A = test: microbe, parasite or virus in culture; conditions: E. coli PRP1 Tet A
[2] = test system: E. coli MC 4100 TNIOC Tet B; test: microbe, parasite or virus in culture; conditions: E. coli MC 4100 TNIOC Tet B
E. coli J3272 Tet C = test: microbe, parasite or virus in culture; conditions: E. coli J3272 Tet C
E. coli UBMS 89-1 Tet M = test: microbe, parasite or virus in culture; conditions: E. coli UBMS 89-1 Tet M
[3] = test system: E. coli UBMS 89-2 Tet sens.; test: MIC, agar dilution; conditions: E. coli UBMS 89-2 Tet sens.
E. coli J2175 = test: MIC, agar dilution; conditions: E. coli J2175
E. coli BAJ9003 IMP MUT = test: microbe, parasite or virus in culture; conditions: E. coli BAJ9003 IMP MUT
E. coli UBMS 90-4 Tet M = test: microbe, parasite or virus in culture; conditions: E. coli UBMS 90-4 Tet M
E. coli UBMS 90-5 = test: MIC, agar dilution
E. coli #311 (MP) = test: MIC, agar dilution; conditions: E. coli #311 (MP)
E. coli ATCC 25922 = test: MIC, agar dilution; conditions: E. coli ATCC 25922
E. coli J3272 Tet D = test: microbe, parasite or virus in culture; conditions: E. coli J3272 Tet D
S. mariescens FPOR 8733 = test: MIC, agar dilution
[4] = test system: X. maltophilia NEMC 87210; test: MIC, agar dilution
[5] = test system: Ps. acruginosa ATCC 27853; test: MIC, agar dilution; conditions: Ps. acruginosa ATCC 27853
S. aureus NEMC 8769 = test: MIC, agar dilution; conditions: S. aureus NEMC 8769
S. aureus UBMS 88-4 = test: MIC, agar dilution; conditions: S. aureus UBMS 88-4
[6] = test system: S. aureus UBMS 88-5 Tet M; test: microbe, parasite or virus in culture; conditions: S. aureus UBMS 88-5 Tet M
[7] = test system: S. aureus UBMS 88-7 Tet K; test: microbe, parasite or virus in culture; conditions: S. aureus UBMS 88-7 Tet K
[8] = test system: S. aureus UBMS 90-1 Tet M; test: microbe, parasite or virus in culture; conditions: S. aureus UBMS 90-1 Tet M
S. aureus UBMS 90-3 = test: MIC, agar dilution; conditions: S. aureus UBMS 90-3
[9] = test system: S. aureus UBMS 90-2 Tet M; test: microbe, parasite or virus in culture; conditions: S. aureus UBMS 90-2 Tet M
S. aureus IVES 2943 = test: MIC, agar dilution; conditions: S. aureus IVES 2943
S. aureus ROSE (MP) = test: MIC, agar dilution; conditions: S. aureus ROSE (MP)
S. aureus SMITH (MP) = test: MIC, agar dilution; conditions: S. aureus SMITH (MP)
S. aureus IVES 1 983 = test: MIC, agar dilution; conditions: S. aureus IVES 1 983
S. aureus ATCC 29213 = test: MIC, agar dilution; conditions: S. aureus ATCC 29213
[10] = test system: S. hemolyticus AVHAH 88-3; test: MIC, agar dilution; conditions: S. hemolyticus AVHAH 88-3
Enterococcus 12201 = test: MIC, agar dilution; conditions: Enterococcus 12201
E. faecalis ATCC 29212 = test: MIC, agar dilution; conditions: E. faecalis ATCC 29212

SMILES	MIC (E. coli UBMS 88-1 Tet B)	MIC [1]	MIC (E. coli PRP1 Tet A)	MIC [2]	MIC (E. coli J3272 Tet C)	MIC (E. coli UBMS 89-1 Tet M)	MIC [3]	MIC (E. coli J2175)	MIC (E. coli BAJ9003 IMP MUT)	MIC (E. coli UBMS 90-4 Tet M)	MIC (E. coli UBMS 90-5)	MIC (E. coli #311 (MP))	MIC (E. coli ATCC 25922)	MIC (S. mariescens FPOR 8733)	MIC [4]	MIC [5]	MIC (S. aureus NEMC 8769)	MIC (S. aureus UBMS 88-4)	MIC [6]	MIC [7]	other results
CN(C)c1cc(NC(=O)CNCCO)c(O)c2c1CC1CC3C(N(C)C)C(O)=C(C(N)=O)C(=O)C3(O)C(O)=C1C2=O.Cl (stereo not drawn) [P, [4S-(4alpha,12aalpha)]-4,7-Bis(dimethylamino)-1.4,4a,5,5a,6,11,12a-octahydro-3,10, 12,12a-tetrahydroxy-9-[[[(2-hydroxyethyl)amino]acetyl]amino]-1,11-dioxo-2-naphthacenecarboxamide monohydrochloride]	> 32 µg/mL	4 µg/mL	> 32 µg/mL	> 32 µg/mL	> 32 µg/mL	> 32 µg/mL	> 32 µg/mL	32 µg/mL	2 µg/mL	32 µg/mL	32 µg/mL	16 µg/mL	16 µg/mL	> 32 µg/mL	> 32 µg/mL	> 32 µg/mL	4 µg/mL	8 µg/mL	32 µg/mL	32 µg/mL	MIC (E. coli J3272 Tet D): 16 µg/mL; MIC [8]: 32 µg/mL; MIC (S. aureus UBMS 90-3): 8 µg/mL; MIC [9]: 16 µg/mL; MIC (S. aureus IVES 2943): > 32 µg/mL; MIC (S. aureus ROSE (MP)): > 32 µg/mL; MIC (S. aureus SMITH (MP)): 4 µg/mL; MIC (S. aureus IVES 1 983): > 32 µg/mL; MIC (S. aureus ATCC 29213): 8 µg/mL; MIC [10]: 32 µg/mL; MIC (Enterococcus 12201): 8 µg/mL; MIC (E. faecalis ATCC 29212): 4 µg/mL
CN(CCO)CC(=O)Nc1cc(N(C)C)c2c(c1O)C(=O)C1=C(O)[C@]3(O)C(=O)C(C(N)=O)=C(O)[C@@H](N(C)C)C3CC1C2 (stereo partly drawn) [Q]	32 µg/mL (≈ 54.5 µM)	4 µg/mL (≈ 6.81 µM)	> 32 µg/mL	> 32 µg/mL	> 32 µg/mL	32 µg/mL (≈ 54.5 µM)	32 µg/mL (≈ 54.5 µM)	32 µg/mL (≈ 54.5 µM)	2 µg/mL (≈ 3.4 µM)	16 µg/mL (≈ 27.2 µM)	32 µg/mL (≈ 54.5 µM)	32 µg/mL (≈ 54.5 µM)	32 µg/mL (≈ 54.5 µM)	16 µg/mL (≈ 27.2 µM)	8 µg/mL (≈ 13.6 µM)	> 32 µg/mL	8 µg/mL (≈ 13.6 µM)	8 µg/mL (≈ 13.6 µM)	16 µg/mL (≈ 27.2 µM)	32 µg/mL (≈ 54.5 µM)	MIC (E. coli J3272 Tet D): 32 µg/mL (≈ 54.5 µM); MIC [8]: 32 µg/mL (≈ 54.5 µM); MIC (S. aureus UBMS 90-3): 8 µg/mL (≈ 13.6 µM); MIC [9]: 16 µg/mL (≈ 27.2 µM); MIC (S. aureus IVES 2943): > 32 µg/mL; MIC (S. aureus ROSE (MP)): > 32 µg/mL; MIC (S. aureus SMITH (MP)): 8 µg/mL (≈ 13.6 µM); MIC (S. aureus IVES 1 983): > 32 µg/mL; MIC (S. aureus ATCC 29213): 16 µg/mL (≈ 27.2 µM); MIC [10]: 16 µg/mL (≈ 27.2 µM); MIC (Enterococcus 12201): 4 µg/mL (≈ 6.81 µM); MIC (E. faecalis ATCC 29212): 4 µg/mL (≈ 6.81 µM)
CN(C)c1cc(NC(=O)CNCCN2CCCCC2)c(O)c2c1C[C@H]1C[C@H]3[C@H](N(C)C)C(O)=C(C(N)=O)C(=O)[C@@]3(O)C(O)=C1C2=O [U, [4S-(4alpha,12alpha)]-4,7-Bis(dimethylamino)-1,4,4a,5,5a,6,11,12a-octahydro3,10,12,12a-tetrahydroxy-1,11-dioxo-9-[[[[2-(1-piperidinyl)ethyl]amino]acetyl]amino]-2-naphthacenecarboxamide]	> 32 µg/mL	4 µg/mL (≈ 6.24 µM)	> 32 µg/mL	32 µg/mL (≈ 49.9 µM)	16 µg/mL (≈ 25 µM)	16 µg/mL (≈ 25 µM)	32 µg/mL (≈ 49.9 µM)	32 µg/mL (≈ 49.9 µM)	2 µg/mL (≈ 3.12 µM)	16 µg/mL (≈ 25 µM)	16 µg/mL (≈ 25 µM)	16 µg/mL (≈ 25 µM)	16 µg/mL (≈ 25 µM)	> 32 µg/mL	16 µg/mL (≈ 25 µM)	> 32 µg/mL	8 µg/mL (≈ 12.5 µM)	8 µg/mL (≈ 12.5 µM)	16 µg/mL (≈ 25 µM)	16 µg/mL (≈ 25 µM)	MIC [8]: 32 µg/mL (≈ 49.9 µM); MIC (S. aureus UBMS 90-3): 8 µg/mL (≈ 12.5 µM); MIC [9]: 8 µg/mL (≈ 12.5 µM); MIC (S. aureus IVES 2943): > 32 µg/mL; MIC (S. aureus ROSE (MP)): > 32 µg/mL; MIC (S. aureus SMITH (MP)): 8 µg/mL (≈ 12.5 µM); MIC (S. aureus IVES 1 983): > 32 µg/mL; MIC (S. aureus ATCC 29213): 8 µg/mL (≈ 12.5 µM); MIC [10]: 32 µg/mL (≈ 49.9 µM); MIC (E. faecalis ATCC 29212): 8 µg/mL (≈ 12.5 µM)
C#CCN(C)CC(=O)Nc1cc(N(C)C)c2c(c1O)C(=O)C1=C(O)[C@]3(O)C(=O)C(C(N)=O)=C(O)[C@@H](N(C)C)[C@@H]3C[C@@H]1C2 [V, [4S-(4alpha,12aalpha)]-4,7-Bis(dimethylamino)-1,4,4a,5,5a,6,11,12a-octahydro-3,10, 12,12a-tetrahydroxy-9-[[[methyl-2-propynylamino]acetyl]amino]-1,11-dioxo-2-naphthacenecarboxamide]	> 32 µg/mL	32 µg/mL (≈ 55 µM)	> 32 µg/mL	> 32 µg/mL	> 32 µg/mL	> 32 µg/mL	> 32 µg/mL	> 32 µg/mL	4 µg/mL (≈ 6.88 µM)	> 32 µg/mL	> 32 µg/mL	> 32 µg/mL	> 32 µg/mL	> 32 µg/mL	32 µg/mL (≈ 55 µM)	> 32 µg/mL	4 µg/mL (≈ 6.88 µM)	4 µg/mL (≈ 6.88 µM)	8 µg/mL (≈ 13.8 µM)	32 µg/mL (≈ 55 µM)	MIC (E. coli J3272 Tet D): > 32 µg/mL; MIC [8]: 16 µg/mL (≈ 27.5 µM); MIC (S. aureus UBMS 90-3): 4 µg/mL (≈ 6.88 µM); MIC [9]: 8 µg/mL (≈ 13.8 µM); MIC (S. aureus IVES 2943): > 32 µg/mL; MIC (S. aureus ROSE (MP)): > 32 µg/mL; MIC (S. aureus SMITH (MP)): 4 µg/mL (≈ 6.88 µM); MIC (S. aureus IVES 1 983): > 32 µg/mL; MIC (S. aureus ATCC 29213): 4 µg/mL (≈ 6.88 µM); MIC [10]: 32 µg/mL (≈ 55 µM); MIC (Enterococcus 12201): 8 µg/mL (≈ 13.8 µM); MIC (E. faecalis ATCC 29212): 4 µg/mL (≈ 6.88 µM)

— US5328902A, “7-(substituted)-9-[(substituted glycyl)amido]-6-demethyl-6-deoxytetracyclines” (American Cyanamid Co., priority 1992, dated 1994)
